{"source": "patent US20090181086A1", "about": "(priority 2008, published 2009)", "origin": "cited, not measured here", "key": {"[1]": {"tested_on": "monoamine oxidase type B (MAO-B)", "settings": "ex vivo, brain, liver and intestinal tissues"}, "CYP1A2": {"molecular_target": "CYP1A2 (Homo sapiens, UniProt P05177)", "sequence (P05177 whole entry, species assumed)": "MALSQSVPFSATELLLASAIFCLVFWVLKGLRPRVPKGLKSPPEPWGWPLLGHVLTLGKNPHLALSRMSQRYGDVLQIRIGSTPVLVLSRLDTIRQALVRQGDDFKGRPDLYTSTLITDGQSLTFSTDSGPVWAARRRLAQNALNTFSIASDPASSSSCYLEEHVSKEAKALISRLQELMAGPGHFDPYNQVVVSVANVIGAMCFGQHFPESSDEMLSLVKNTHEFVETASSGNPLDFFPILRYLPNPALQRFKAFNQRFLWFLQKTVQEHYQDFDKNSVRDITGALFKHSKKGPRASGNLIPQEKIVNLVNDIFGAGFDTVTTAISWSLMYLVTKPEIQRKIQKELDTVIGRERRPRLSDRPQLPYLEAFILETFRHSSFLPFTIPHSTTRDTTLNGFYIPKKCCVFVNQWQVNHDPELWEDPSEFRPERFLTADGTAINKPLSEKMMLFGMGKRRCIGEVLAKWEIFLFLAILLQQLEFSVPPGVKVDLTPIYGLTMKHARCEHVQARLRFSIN", "settings": "in vitro"}, "platelet MAO-B": {"molecular_target": "platelet MAO-B (Homo sapiens, UniProt P27338)", "sequence (P27338 whole entry)": "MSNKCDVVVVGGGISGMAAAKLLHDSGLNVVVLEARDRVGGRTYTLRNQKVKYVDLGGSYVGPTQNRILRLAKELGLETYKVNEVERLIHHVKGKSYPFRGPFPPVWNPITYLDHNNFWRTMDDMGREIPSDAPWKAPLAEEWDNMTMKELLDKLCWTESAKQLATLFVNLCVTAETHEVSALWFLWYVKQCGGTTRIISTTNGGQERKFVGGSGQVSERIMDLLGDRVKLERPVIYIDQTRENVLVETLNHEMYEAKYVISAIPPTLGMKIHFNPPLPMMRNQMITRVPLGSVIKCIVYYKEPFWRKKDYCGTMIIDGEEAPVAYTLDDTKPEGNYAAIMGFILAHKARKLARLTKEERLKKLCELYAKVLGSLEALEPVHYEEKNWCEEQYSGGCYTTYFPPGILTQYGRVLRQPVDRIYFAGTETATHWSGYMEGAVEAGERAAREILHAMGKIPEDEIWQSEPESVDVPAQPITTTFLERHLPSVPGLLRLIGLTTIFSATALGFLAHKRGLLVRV"}, "human albumin": {"molecular_target": "human albumin (Homo sapiens, UniProt P02768)", "sequence (P02768 25-609)": "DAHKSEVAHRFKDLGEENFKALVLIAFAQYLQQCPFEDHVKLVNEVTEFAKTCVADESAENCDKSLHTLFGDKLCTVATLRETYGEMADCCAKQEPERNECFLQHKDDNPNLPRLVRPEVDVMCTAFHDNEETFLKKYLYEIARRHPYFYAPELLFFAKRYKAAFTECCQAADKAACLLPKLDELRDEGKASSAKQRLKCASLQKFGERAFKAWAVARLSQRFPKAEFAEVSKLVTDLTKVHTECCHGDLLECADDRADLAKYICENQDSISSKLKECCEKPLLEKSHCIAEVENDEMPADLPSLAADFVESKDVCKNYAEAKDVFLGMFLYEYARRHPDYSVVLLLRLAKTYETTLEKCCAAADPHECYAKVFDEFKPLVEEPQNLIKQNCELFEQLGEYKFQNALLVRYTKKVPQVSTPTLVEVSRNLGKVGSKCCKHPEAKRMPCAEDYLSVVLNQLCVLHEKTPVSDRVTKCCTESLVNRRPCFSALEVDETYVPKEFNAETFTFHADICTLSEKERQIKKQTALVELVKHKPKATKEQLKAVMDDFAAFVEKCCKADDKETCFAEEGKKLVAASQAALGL", "settings": "concentration range of 1-100 ng/mL"}, "[2]": {"settings": "oral 14C-labeled rasagiline, over 7 days"}}, "note": "Read-outs that look alike come from different tables or passages of the source.", "data": [{"smiles": "C#CCN[C@@H]1CCc2ccccc21", "note": "[rasagiline, R(+)-N-propargyl-1-aminoindan]", "values": [{"measurement": "MAO-B inhibition, in words", "setting": "[1]", "value": "potent, irreversible monoamine oxidase type B (MAO-B) selective inhibitor"}, {"measurement": "isoenzyme involved in rasagiline metabolism, in words", "setting": "CYP1A2", "value": "CYP1A2 being the major isoenzyme involved"}, {"measurement": "pharmacokinetics versus dose, in words", "setting": "doses over the range of 1-10 mg", "value": "linear"}, {"measurement": "absolute bioavailability", "setting": "human, in vivo", "value": "about 36%"}, {"measurement": "effect of food on Tmax, in words", "setting": "human, in vivo", "value": "does not affect"}, {"measurement": "excreted as unchanged drug in urine", "setting": "human, in vivo", "value": "Less than 1%"}, {"measurement": "mean steady-state half life", "setting": "human, in vivo", "value": 3, "unit": "h"}, {"measurement": "mean volume of distribution at steady-state", "setting": "human, in vivo", "value": 87, "unit": "L"}, {"measurement": "elimination via feces", "setting": "[2]", "value": "7 % of total dose"}, {"measurement": "elimination via urine", "setting": "[2]", "value": "62 % of total dose"}, {"measurement": "total calculated recovery", "setting": "oral 14C-labeled rasagiline, over a period of 38 days", "value": "84 % of the dose"}, {"measurement": "decrease of Cmax", "setting": "taken with a high fat meal", "value": "approximately 60%"}, {"measurement": "decrease of exposure (AUC)", "setting": "taken with a high fat meal", "value": "~20", "unit": "%"}, {"measurement": "Plasma protein binding", "setting": "plasma protein", "value": "88-94%"}, {"measurement": "MAO-B inhibition", "setting": "platelet MAO-B; 3 days after daily dosing at 2 mg/day, maintained 3 days post-dose", "value": "Over 90%"}, {"measurement": "MAO-B inhibition", "setting": "platelet MAO-B; after a single rasagiline dose of 1 mg/day", "value": "25-35%"}, {"measurement": "MAO-B inhibition", "setting": "platelet MAO-B; after a single rasagiline dose of 2 mg/day", "value": "more than 55%"}, {"measurement": "duration of platelet MAO-B inhibition after last dose", "setting": "platelet MAO-B; human, in vivo", "value": "at least 1 week"}, {"measurement": "MAO-B inhibition, in words", "setting": "platelet MAO-B; multiple doses of 0.5, 1 and 2 mg per day", "value": "complete MAO-B inhibition"}, {"measurement": "MAO-B inhibition in platelets, in words", "setting": "platelet MAO-B; recommended therapeutic dose", "value": "potent and irreversible inhibitor of MAO-B"}, {"measurement": "mean extent of binding to human albumin", "setting": "human albumin", "value": "61-63%"}]}]}
